In the NIST ThermoML archive (doi:10.1016/j.fluid.2014.04.019):
Numbers after ± are expanded uncertainties.

Test: xn = mol fraction of the nth substance listed
Settings: 101 kPa, Liquid

OCCOCCO [diethylene glycol] + CN(C)C=O
Settings	kinematic viscosity, 298.15 K [m2/s]	kinematic viscosity, 303.15 K [m2/s]	kinematic viscosity, 308.15 K [m2/s]	mass density, 298.15 K [kg/m3]	mass density, 303.15 K [kg/m3]	mass density, 308.15 K [kg/m3]
x2 = 0	2.76e-05 ± 1.2e-06	2.13e-05 ± 9e-07	1.68e-05 ± 7e-07	1113 ± 2.9	1109.2 ± 3	1106.1 ± 3.1
x2 = 0.0714	1.96e-05 ± 8e-07	1.53e-05 ± 7e-07	1.19e-05 ± 5e-07	1104.1 ± 2.9	1100 ± 3	1096.7 ± 3.1
x2 = 0.1393	1.57e-05 ± 7e-07	1.24e-05 ± 6e-07	9.67e-06 ± 4.5e-07	1094.9 ± 2.8	1090.8 ± 2.9	1087.3 ± 3
x2 = 0.2041	1.26e-05 ± 6e-07	1.01e-05 ± 5e-07	8.08e-06 ± 3.9e-07	1085.9 ± 2.8	1081.9 ± 2.9	1078.2 ± 3
x2 = 0.2683	1.02e-05 ± 5e-07	8.29e-06 ± 4e-07	6.7e-06 ± 3.4e-07	1076.7 ± 2.8	1072.6 ± 2.9	1068.7 ± 3
x2 = 0.3266	8.33e-06 ± 4e-07	6.84e-06 ± 3.4e-07	5.59e-06 ± 2.9e-07	1068.1 ± 2.8	1063.9 ± 2.9	1059.9 ± 3
x2 = 0.3834	6.84e-06 ± 3.4e-07	5.68e-06 ± 3e-07	4.69e-06 ± 2.6e-07	1059.4 ± 2.7	1055.2 ± 2.8	1051 ± 2.9
x2 = 0.4384	5.66e-06 ± 3e-07	4.76e-06 ± 2.6e-07	3.98e-06 ± 2.2e-07	1050.9 ± 2.7	1046.5 ± 2.8	1042.2 ± 2.9
x2 = 0.4917	4.71e-06 ± 2.6e-07	4e-06 ± 2.2e-07	3.38e-06 ± 1.9e-07	1042.3 ± 2.7	1037.9 ± 2.8	1033.5 ± 2.9
x2 = 0.5429	3.94e-06 ± 2.2e-07	3.38e-06 ± 1.9e-07	2.88e-06 ± 1.6e-07	1033.8 ± 2.7	1029.4 ± 2.8	1024.8 ± 2.9
x2 = 0.5865	3.4e-06 ± 1.9e-07	2.93e-06 ± 1.6e-07	–	1026.4 ± 2.6	1022 ± 2.7	–
x2 = 0.6394	2.83e-06 ± 1.6e-07	2.47e-06 ± 1.4e-07	–	1017.2 ± 2.6	1012.7 ± 2.7	–
x2 = 0.6819	2.44e-06 ± 1.4e-07	2.15e-06 ± 1.2e-07	–	1009.5 ± 2.6	1005 ± 2.7	–
x2 = 0.7294	2.08e-06 ± 1.2e-07	1.85e-06 ± 1.1e-07	–	1000.7 ± 2.6	996.1 ± 2.7	–
x2 = 0.7721	1.8e-06 ± 1e-07	1.62e-06 ± 1e-07	–	992.5 ± 2.5	987.9 ± 2.6	–
x2 = 0.813	1.57e-06 ± 9e-08	1.42e-06 ± 8e-08	–	984.5 ± 2.5	979.7 ± 2.6	–
x2 = 0.8531	1.38e-06 ± 8e-08	1.25e-06 ± 8e-08	–	976.4 ± 2.5	971.5 ± 2.6	–
x2 = 0.891	1.22e-06 ± 7e-08	1.12e-06 ± 7e-08	–	968.5 ± 2.5	963.6 ± 2.6	–
x2 = 0.9288	1.08e-06 ± 7e-08	1e-06 ± 6e-08	–	960.2 ± 2.4	955.4 ± 2.5	–
x2 = 0.9648	9.67e-07 ± 6e-08	9.04e-07 ± 5.7e-08	–	952.2 ± 2.4	947.6 ± 2.5	–
